Measured values from patent publication US20240325393A1, “TOFACITINIB-CONTAINING ANHYDROUS ELASTOMER-BASED GEL FORMULATIONS” (VYNE THERAPEUTICS INC., priority 2020, published 2024).
Converted amounts (≈) assume the structure as drawn. Read-outs that look alike come from different tables or passages of the source.

How the values were obtained:
[1] = test system: Hartley-derived albino guinea pigs
[2] = Interfacial tension predictions (Washburn method, Fowkes theory); assay type: physicochemical
Procedure: Based on the contact angle data, the surface energy is calculated and polar and dispersive components of surface energy as well as surface polarity are estimated.
A surface tension study was performed to characterize active agent samples, various oils and specific formulations for Surface energy with polar and dispersive components. The Washburn method was used to determine contact angles and the Fowkes theory was used to calculate surface energies.
Surface tension measurements were performed on several oils and the following formulations: OT1.0016P (elastomer-MCT oil-based formulation), OT1.0021P (elastomer-based formulation comprising a combination of MCT oil, squalane and isopropyl isostearate) and OT1.0022P (elastomer-based formulation comprising a combination of MCT oil, squalane and oleyl alcohol).

[3] = AD murine model: body weight
Procedure: Atopic Dermatitis is induced by once daily application for 38 days of 100 μl of 0.5% 2,4-dinitrochlorobenzene (DNCB) solution onto the shaved back skin of mice. Starting on day 32, test formulations are administered once daily onto the shaved back skin of mice in addition to DNCB. Several measurements are taken at different time points:
Daily from Day 32: Body weight, mortality, behaviour (scratching), general condition, AD index.

[4] = Skin penetration (IVPT), vertical diffusion cell, LC-MS/MS; assay type: in vitro ADME, human; settings: for Dermis concentration, μg/g Based on the Mean (n = 5) / Epidermis concentration, μg/g Based on the Mean (n = 5): estimated, skin 500 μm; for Dermis concentration, μg/g Based on the Mean (n = 5) / Epidermis concentration, μg/g Based on the Mean (n = 5) / estimated concentration of active in epidermis: epidermis assumed 80 μm, density 1.0 g/cm^3; for fingolimod concentration in receptor fluid: quantitation limit of LC-MS method
Procedure: The skin is dosed with approx. 6 mg of formulation to achieve a dose of ˜10 mg/cm2. Receptor solution is collected at pre-determined intervals over the course of 24 hours and analyzed using a liquid chromatography with tandem mass spectrometry (LC-MS/MS) analytical method.
Following 24 hours, the residual formulation is removed from the surface of the skin. The skin surface is tape-stripped up to five times to remove residual formulation and the top of the skin surface layers (Stratum Corneum). The epidermis is then heat-separated from the dermis. The active agent is extracted from the skin layers and the amount of active agent delivered to the epidermis and dermis is then determined by LC-MS/MS.

[5] = Chemical stability of topical formulations (HPLC); assay type: physicochemical
Procedure: Where another active agent such as fingolimod is present in the formulations the samples are analysed for that active agent and its degradation products by HPLC. […] The gradient elution is employed.

[6] = Visual solubility determination of Fingolimod free base in organic solvents at RT; assay type: physicochemical; settings: for solubility: organic solvent or mixture, thermodynamic from solid, visual determination at RT
Procedure: A visual solubility evaluation of Fingolimod free base was performed.

[7] = Toxicokinetic / pK evaluation in Gottingen Minipigs (plasma tofacitinib, whole blood fingolimod and fingolimod phosphate); settings: minipig, topical
Procedure: (§1) The animals are not fasted prior to blood collection, with the exception of the intervals that coincide with fasting for clinical pathology collections.
(§2) If necessary, the samples are frozen on dry ice prior to being placed in the freezer. […] Samples are stored at the bioanalytical laboratories in a freezer set to maintain −80±10° C. until analysis.
(§3) Samples designated for analysis of fingolimod and fingolimod phosphate are mixed gently, lysed with an equal volume of deionized water, vortexed for approximately 1 minute, divided into two approximately equal aliquots, transferred to uniquely labeled polypropylene tubes and frozen in a freezer set to maintain −70° C. If necessary, the samples are frozen on dry ice prior to being placed in the freezer. The samples for fingolimod analysis are shipped with a temperature monitoring device to bioanalytical laboratories. Samples are stored at the bioanalytical laboratories in a freezer set to maintain −75±15° C. until analysis.
(§4) Whole blood is analyzed for concentration of fingolimod and fingolimod phosphate using a validated analytical procedure for the simultaneous quantitation of both analytes.
(§5) TK samples collected on Days 49 and 56 from recovery animals in Groups 1, 2, 3, 5, and 6 are also analyzed. Statistical analyses including regression analysis and descriptive statistics including arithmetic means and standard deviations, accuracy, and precision are performed. Incurred sample reanalysis may be performed as part of this study according to the Test Site SOPs.
(§6) A non-compartmental approach consistent with the dermal route of administration is used for parameter estimation.
(§7) Partial AUCs (between 2 defined sample times), and corresponding dose-normalized values, are derived and reported to aid interpretation. Descriptive statistics (e.g., number, arithmetic mean, median, standard deviation, standard error, coefficient of variation) are reported as deemed appropriate, as well as ratios for appropriate grouping and sorting variables (e.g. AUC and/or Cmax female/male ratios, AUC and/or Cmax metabolite/parent drug ratios).

[8] = in vivo; settings: both, Gottingen, minipig, plasma (tofacitinib); whole blood (fingolimod), topical
Procedure: as §1, §2, §3, §4, §5, §6, §7

[9] = test system: Atopic Dermatitis induced by 2,4-dinitrochlorobenzene (DNCB); experiment: AD murine model: AD index (ADI, mADI), behaviour, histological analysis of skin; assay type: in vivo; settings: DNCB induced mice, Example 41 (combination study)
Description: As used herein, “Atopic Dermatitis Index (ADI)” refers to the sum of the scores of four factors consisting of: (1) the presence of erythema/haemorrhage on the skin, (2) edema/thickening of the skin, (3) excoriation/erosion of the skin and (4) dryness/peeling of the skin at the area of induction of atopic dermatitis. The sum of the scores of these factors provides a combined ADI, on a scale of 0 to 12. […]
The presence of erythema/haemorrhage is scored based on the following scoring grid: • 0=no or no more erythema/haemorrhage on the skin, • 1=weak erythema/haemorrhage on the skin, • 2=moderate erythema/haemorrhage on the skin, • 3=severe erythema/haemorrhage on the skin.
The presence of edema/thickening is scored based on the following scoring grid: • 0=no or no more edema/thickening of the skin, • 1=weak edema/thickening of the skin, • 2=moderate edema/thickening of the skin, • 3=severe edema/thickening of the skin.
The presence of excoriation/erosion is scored based on the following scoring grid: • 0=no or no more excoriation/erosion of the skin, • 1=weak excoriation/erosion of the skin, • 2=moderate excoriation/erosion of the skin, • 3=severe excoriation/erosion of the skin. […]

[10] = test system: S1P receptors (S1P1 and S1P3-5); settings: cited from earlier work
[11] = Dermis, formulation of Table 42 (fingolimod HCl […])
[12] = Dermis, formulation of Table 43a
[13] = Epidermis, formulation of Table 43a
[14] = Receptor fluid, formulation of Table 42 (fingolimod HCl […])
[15] = Receptor fluid, formulation of Table 43a
[16] = formulation with 1.0% tofacitinib citrate and […] fingolimod hydrochloride
[17] = 2 months at 40° C., formulation of Table 38
[18] = 2 months at 50° C., formulation of Table 38
[19] = 3 weeks at 5° C., formulation of Table 38
[20] = 3 weeks at 50° C., formulation of Table 38

O=[N+]([O-])c1ccc(Cl)c([N+](=O)[O-])c1 [DNCB, 2,4-dinitrochlorobenzene]
Group mean dermal scores, test animals ([1]; challenge with 0.05% w/v DNCB in acetone and ethanol, control animals 0.25): 0.6 | Group mean dermal scores, test animals ([1]; challenge with 0.1% w/v DNCB in acetone and ethanol, control animals 0.375): 1.45

C[C@@H]1CCN(C(=O)CC#N)C[C@@H]1N(C)c1ncnc2[nH]ccc12.O=C(O)CC(O)(CC(=O)O)C(=O)O [Tofacitinib Citrate micronized Lot TOF0000004-04]
Interfacial Tension ([2]; with OT1.0016P): 2.72 mN/m | Interfacial Tension ([2]; with OT1.0021P): 2.17 mN/m | Interfacial Tension ([2]; with OT1.0022P): 1.95 mN/m | Interfacial Tension ([2]; with Stainless Steel): 2.50 mN/m

C[C@@H]1CCN(C(=O)CC#N)C[C@@H]1N(C)c1ncnc2[nH]ccc12.O=C(O)CC(O)(CC(=O)O)C(=O)O [Tofacitinib Citrate non-micronized Lot TOF0000004]
Interfacial Tension ([2]; with OT1.0016P): 1.88 mN/m | Interfacial Tension ([2]; with OT1.0021P): 1.45 mN/m | Interfacial Tension ([2]; with Stainless Steel): 1.62 mN/m

CC1(C)O[C@@H]2C[C@H]3[C@@H]4CCC5=CC(=O)C=C[C@]5(C)[C@@]4(F)[C@@H](O)C[C@]3(C)[C@]2(C(=O)CO)O1 [Triamcinolone acetonide]
Mean body weights values: Weight D 32 ([3]; DNCB induced mice, Example 41, D 32 (treatment start)): 18.31 | Mean body weights values: Weight D 39 ([3]; DNCB induced mice, Example 41, D 39): 15.66 | Mean Body Weight Change d 39 − d 32 ([3]; DNCB induced mice, Example 41, (+) weight gain, (−) weight loss): −2.65

CCCCCCCCc1ccc(CCC(N)(CO)CO)cc1 [fingolimod, 2-amino-2-[2-(4-octylphenyl)ethyl]propane-1,3-diol]
Amount of Fingolimod recovered, % applied dose, Mean (n = 5) [4, 11]: 2.59% | Amount of Fingolimod recovered, ng, Mean (n = 5) [4, 11]: 49.16 ng | Amount of Fingolimod recovered, % applied dose, Mean (n = 5) [4, 12]: 1.44% | Amount of Fingolimod recovered, ng, Mean (n = 5) [4, 12]: 14.82 ng | Amount of Fingolimod recovered, % applied dose, Mean (n = 5) ([4]; Epidermis, formulation of Table 42 (fingolimod HCl […])): 1.98% | Amount of Fingolimod recovered, % applied dose, Mean (n = 5) [4, 13]: 1.59% | Amount of Fingolimod recovered, ng, Mean (n = 5) [4, 13]: 16.21 ng | Amount of Fingolimod recovered, % applied dose, Mean (n = 5) [4, 14]: ND (ND—not detected (below LOQ of 0.25 ng/mL)) | Amount of Fingolimod recovered, ng, Mean (n = 5) [4, 14]: ND (ND—not detected (below LOQ of 0.25 ng/mL)) | Amount of Fingolimod recovered, % applied dose, Mean (n = 5) [4, 15]: ND (ND—not detected (below LOQ of 0.25 ng/ml)) | Amount of Fingolimod recovered, ng, Mean (n = 5) [4, 15]: ND (ND—not detected (below LOQ of 0.25 ng/ml)) | Dermis concentration, μg/g Based on the Mean (n = 5) ([4]; formulation of Table 43a): 0.6 µg/g | Epidermis concentration, μg/g Based on the Mean (n = 5) ([4]; formulation of Table 43a): 3.4 µg/g | fingolimod concentration in receptor fluid ([4]; formulation containing […] of fingolimod hydrochloride): < 0.25 ng/mL | estimated concentration of active in dermis [4, 16]: 0.6 µg/mL | estimated concentration of active in epidermis [4, 16]: 3.4 µg/g | fingolimod concentration in receptor fluid [4, 16]: < 0.25 ng/mL | Assay, % LC [5, 17]: 97.2 % LC | Assay, % LC [5, 18]: 95.0 % LC | Assay, % LC [5, 19]: 100.3 % LC | Assay, % LC ([5]; 3 weeks at 40° C., formulation of Table 38): 99.9 % LC | Assay, % LC [5, 20]: 94.1 % LC | Assay, % LC ([5]; Initial, elastomer-based formulation of Table 38 (tofacitinib citrate 1.0%, fingolimod HCl 0.01%)): 99.9 % LC | visual solubility ([6]; alcohols, RT): very good solubility | visual solubility ([6]; most of organic solvents tested, RT): good solubility | solubility ([6]; 2-Methyl tetrahydrofurane): 10 mg/mL (≈ 32.5 mM) | solubility ([6]; Acetone): 5 mg/mL (≈ 16.3 mM) | solubility ([6]; Acetonitrile): 1.8 mg/mL (≈ 5.85 mM) | solubility ([6]; Dichloromethane): 6.7 mg/mL (≈ 21.8 mM) | solubility ([6]; Ethyl acetate): 4 mg/mL (≈ 13 mM) | solubility ([6]; Isopropanol): 20 mg/mL (≈ 65 mM) | solubility ([6]; Methyl ethyl ketone): 1.2 mg/mL (≈ 3.9 mM) | solubility ([6]; Methyl isobutyl ketone): 5 mg/mL (≈ 16.3 mM) | solubility ([6]; tert-Butyl methyl ether): 2 mg/mL (≈ 6.5 mM) | visual solubility ([6]; water, toluene, diisopropyloxide and methyl ethyl ketone): very low soluble | AUC(0-t) [7]: 3.73 ng·h/mL | Cmax [7]: 0.467 ng/mL

C[C@@H]1CCN(C(=O)CC#N)C[C@@H]1N(C)c1ncnc2[nH]ccc12 [tofacitinib]
Dermis concentration, μg/g Based on the Mean (n = 5) ([4]; formulation of Table 43a): 34.9 µg/g | Epidermis concentration, μg/g Based on the Mean (n = 5) ([4]; formulation of Table 43a): 364.3 µg/g | estimated concentration of active in dermis [4, 16]: 34.9 µg/g | estimated concentration of active in epidermis [4, 16]: 364.3 µg/g | Assay, % LC [5, 17]: 99.2 % LC | Assay, % LC [5, 18]: 98.6 % LC | Assay, % LC [5, 19]: 99.3 % LC | Assay, % LC [5, 20]: 99.1 % LC | Cmax [8]: 1.56 ng/mL

CC1(C)O[C@@H]2C[C@H]3[C@@H]4CCC5=CC(=O)C=C[C@]5(C)[C@@]4(F)[C@@H](O)C[C@]3(C)[C@]2(C(=O)CO)O1 [triamcinolone acetonide]
Mean ADI values (AD Index) D 39 [9]: 0.88

Triamcinolone
Body weight D39 Mean ([3]; mouse, in vivo): 17.7 g | Body weight D39 mean ([3]; mouse, in vivo): 17.1 g | Mean Body Weight Change Day 39 − Day 32, Study 1 ([3]; mouse, in vivo): −2.80 | Mean Body Weight Change Day 39 − Day 32, Study 2 ([3]; mouse, in vivo): −2.06 | Mean Body Weight Change d 39 − d 32 ([3]; mouse, in vivo): −2.80

fingolimod-phosphate
affinity to four of the five S1P receptors (S1P1 and S1P3-5) [10]: 0.3 to 3.1 nM
